The values that follow come from ChEMBL document CHEMBL1151367, “Catharanthus alkaloids. XXXVI. Isolation of vincaleukoblastine (VLB) and periformyline from Catharanthus trichophyllus and pericyclivine from Catharanthus roseus” (1981).

The subject of one experiment is P388. The experiment in a line: Cytotoxicity against mouse P388 cells. It counts as functional. The following applies: read-out: ED50 (the source's name).
A short description of experiment [1]: Cytotoxicity against human 9KB cells. The class given is functional. Conditions: read-out: ED50 (the source's name).

Converted amounts (≈) assume the structure as drawn.

`CC[C@]1(O)C[C@@H]2CN(CCc3c([nH]c4ccccc34)[C@@](C(=O)OC)(c3cc4c(cc3OC)N(C)[C@H]3[C@@](O)(C(=O)OC)[C@H](OC(C)=O)[C@]5(CC)C=CCN6CC[C@]43[C@@H]65)C2)C1` [VINBLASTINE]: the EC50 in the experiment on P388 came out at 1.7 mg/L (≈ 2.1 µM); in experiment [1], 2.4 mg/L (≈ 2.96 µM).

`C/C=C1/CN2CC[C@]34C(=C(C(=O)OC)[C@H]1C[C@H]23)Nc1ccccc14` [AKUAMMICINE]: the EC50 turned out to be 1.7 mg/L (≈ 5.27 µM) with P388 and 2.4 mg/L (≈ 7.44 µM) in experiment [1].

Take `CC[C@]12CN3CCc4c([nH]c5ccccc45)[C@@](C(=O)OC)(c4cc5c(cc4OC)N(C)[C@H]4[C@@](O)(C(=O)OC)[C@H](OC(C)=O)[C@]6(CC)C=CCN7CC[C@]54[C@@H]76)C[C@H](C3)[C@H]1O2` [LEUROSINE]: the EC50 in the experiment with P388 was 1.7 mg/L (≈ 2.1 µM); in experiment [1], 2.4 mg/L (≈ 2.97 µM).
